Test results taken from publication PMC8271926, “1,3,5-Triazine Nitrogen Mustards with Different Peptide Group as Innovative Candidates for AChE and BACE1 Inhibitors” (Molecules, 2021).
Read-outs that look alike come from different tables or passages of the source.

Assays:
[1] = molecular target: T1, BACE1 (from equine serum) (Homo sapiens, UniProt P56817); assay: In vitro BACE1 inhibition, FRET assay; assay type: biochemical
T1 construct: purchased Sigma-Aldrich CS0010

[2] = molecular target: T2, AChE (from electrophorus electricus) (Electrophorus electricus, UniProt O42275); assay: In vitro AChE inhibition, Ellman's colorimetric method; assay type: biochemical
T2 construct: purchased Sigma-Aldrich C3389

[3] = test system: AChE; details: Jameel et al.; read-out: AChE inhibition IC50; cited from earlier work
[4] = test system: BACE-1; details: in vitro; cited from earlier work
[5] = test system: GSK-3β; details: in vitro; cited from earlier work
[6] = cell-based assays; cited from earlier work
[7] = test system: BACE1; details: Yazdani et al.; cited from earlier work
[8] = test system: BACE1; details: Iraji et al.; cited from earlier work
[9] = mean ± SD of three independent experiments, read-out: BACE1 IC50

T2 sequence (O42275 24-633): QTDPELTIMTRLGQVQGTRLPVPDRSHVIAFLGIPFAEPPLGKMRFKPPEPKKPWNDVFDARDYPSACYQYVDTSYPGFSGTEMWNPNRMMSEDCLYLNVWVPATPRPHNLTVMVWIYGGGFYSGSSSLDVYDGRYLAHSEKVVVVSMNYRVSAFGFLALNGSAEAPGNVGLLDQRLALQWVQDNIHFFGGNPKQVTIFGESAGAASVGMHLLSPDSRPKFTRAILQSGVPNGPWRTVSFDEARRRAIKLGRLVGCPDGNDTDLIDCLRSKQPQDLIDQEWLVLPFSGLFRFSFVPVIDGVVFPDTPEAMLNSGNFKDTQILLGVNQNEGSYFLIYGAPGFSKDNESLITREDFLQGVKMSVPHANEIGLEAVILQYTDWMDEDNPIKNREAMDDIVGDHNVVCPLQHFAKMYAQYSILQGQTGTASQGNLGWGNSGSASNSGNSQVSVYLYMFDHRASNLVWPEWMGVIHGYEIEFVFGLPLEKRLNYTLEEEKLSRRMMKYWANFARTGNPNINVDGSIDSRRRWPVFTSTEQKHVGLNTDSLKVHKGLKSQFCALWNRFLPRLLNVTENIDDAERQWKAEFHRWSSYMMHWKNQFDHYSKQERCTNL
T1 sequence (P56817 46-457 limits assumed): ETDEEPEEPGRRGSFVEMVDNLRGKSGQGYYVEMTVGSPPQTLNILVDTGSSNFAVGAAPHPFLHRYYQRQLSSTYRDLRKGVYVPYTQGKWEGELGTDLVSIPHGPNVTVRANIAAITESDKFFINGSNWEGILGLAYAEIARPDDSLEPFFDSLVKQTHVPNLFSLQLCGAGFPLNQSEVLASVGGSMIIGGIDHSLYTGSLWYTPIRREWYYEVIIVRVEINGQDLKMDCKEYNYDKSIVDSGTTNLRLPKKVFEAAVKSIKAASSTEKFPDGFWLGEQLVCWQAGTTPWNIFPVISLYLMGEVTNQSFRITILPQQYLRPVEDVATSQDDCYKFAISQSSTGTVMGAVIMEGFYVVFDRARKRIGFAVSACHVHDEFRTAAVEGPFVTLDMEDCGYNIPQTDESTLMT

Row | Compound | IC50 [1, 9] [µM] | IC50 [2] [µM] | further results
1 | COC(=O)C(C)NC(=O)C(CCCCNC(=O)OC(C)(C)C)Nc1nc(OC)nc(N2CCN(CCCl)CC2)n1 (stereo not drawn) [4a, 2-[4-(2-Chloroethyl)Piperazin-1-yl]-4-Methoxy-6-(NH-Lys(Boc)-Ala -OMe)-1,3,5-Triazine] | 11.1 ± 2.29 | 0.055 ± 0.001 | 
2 | COC(=O)C(C)NC(=O)C(CC(=O)OC(C)(C)C)Nc1nc(OC)nc(N2CCN(CCCl)CC2)n1 (stereo not drawn) [4b, 2-[4-(2-Chloroethyl)Piperazin-1-yl]-4-Methoxy-6-(NH-Asp(OtBu)-Ala-OMe)-1,3,5-Triazine] | 33.8 ± 3.91 | 0.065 ± 0.002 | 
3 | COC(=O)C(C)NC(=O)C(Cc1cn(C(=O)OC(C)(C)C)c2ccccc12)Nc1nc(OC)nc(N2CCN(CCCl)CC2)n1 (stereo not drawn) [4c, 2-[4-(2-Chloroethyl)Piperazin-1-yl]-4-Methoxy-6-(NH-Trp(Boc)-Ala-OMe)-1,3,5-Triazine] | 18.1 ± 2.69 | 0.114 ± 0.012 | 
4 | COC(=O)C(C)NC(=O)C(COCc1ccccc1)Nc1nc(OC)nc(N2CCN(CCCl)CC2)n1 (stereo not drawn) [4d, 2-[4-(2-Chloroethyl)Piperazin-1-yl]-4-Methoxy-6-(NH-Ser (Bn)-Ala -OMe) -1,3,5-Triazine] | 58.1 ± 9.69 | 0.387 ± 0.054 | 
5 | COC(=O)C(C)NC(=O)C(C)(C)Nc1nc(OC)nc(N2CCN(CCCl)CC2)n1 (stereo not drawn) [4e, 2-[4-(2-Chloroethyl)Piperazin-1-yl]-4-Methoxy-6-(NH-Aib-Ala-OMe) -1,3,5 -Triazine] | 51 ± 7.99 | 0.789 ± 0.031 | 
6 | COC(=O)C(C)NC(=O)C(CCCNC(=N)N[N+](=O)[O-])Nc1nc(OC)nc(N2CCN(CCCl)CC2)n1 (stereo not drawn) [4f, 2-[4-(2-Chloroethyl)Piperazin-1-yl]-4-Methoxy-6-(NH-Arg(NO2)-Ala-OMe) -1,3,5-Triazine] | 52 ± 8.55 | 1.44 ± 0.029 | 
7 | COC(=O)C(C)NC(=O)C(Cc1c[nH]c2ccccc12)Nc1nc(OC)nc(N2CCN(CCCl)CC2)n1 (stereo not drawn) [4g, 2-[4-(2-Chloroethyl)Piperazin-1-yl]-4-Methoxy-6-(NH-Trp-Ala-OMe)- 1,3,5- Triazine] | 28.1 ± 3.69 | 0.122 ± 0.014 | 
8 | COC(=O)C(C)NC(=O)C(Cc1cn(S(=O)(=O)c2ccc(C)cc2)cn1)Nc1nc(OC)nc(N2CCN(CCCl)CC2)n1 (stereo not drawn) [4h, 2-[4-(2-Chloroethyl)Piperazin-1-yl]-4-Methoxy-6-(NH-His(Ts)-Ala-OMe)-1,3,5-Triazine] |  |  | IC50 ([1]; read-out: BACE1 IC50, mean ± SD of three independent experiments): 14.2 ± 3.45 µM; IC50 ([2]; read-out: AChE IC50, AChE from electric eel, Ellman's method, mean ± SD of three independent experiments): 0.067 ± 0.003 µM
9 | ClCCN1CCN(c2nc(Nc3ccccc3)nc(N3CCN(CCCl)CC3)n2)CC1 [A] | 9 ± 0.22 | 0.051 ± 0.001 | 
10 | Cc1cccc(Nc2nc(Cl)nc(N3CCN(c4cc(C)nc5ccnn45)CC3)n2)c1 [C] |  |  | IC50 [3]: 0.065 µM
11 | COc1ccc(Nc2nc(Cl)nc(N3CCN(c4cc(C)nc5ccnn45)CC3)n2)cc1 [D] |  |  | IC50 [3]: 0.092 µM
12 | NC1=NC(c2ccc(F)cc2)NC(=O)N1 (stereo not drawn) [E] |  |  | IC50 [4]: 18.03 ± 0.01 µM; IC50 [5]: 14.7 ± 0.78 µM; neuroprotective and neurogenic activities [6]: effective; neurotoxicity [6]: no neurotoxicity
13 | Clc1ccc(Cn2cc(COc3ccc(/C=N/Nc4nnc(-c5ccccc5)c(-c5ccccc5)n4)cc3)nn2)cc1 [F] |  |  | IC50 [7]: 8.55 ± 3.37 µM
14 | O=[N+]([O-])c1ccc(Cn2cc(COc3ccc(/C=N/Nc4nnc(-c5ccccc5)c(-c5ccccc5)n4)cc3)nn2)cc1 [G] |  |  | IC50 [7]: 11.4 ± 2.01 µM
15 | Oc1ccc(/C=N/Nc2nnc(-c3cccs3)c(-c3cccs3)n2)c(O)c1 [H] |  |  | IC50 [8]: 0.91 µM
